Results as given in article PMC13050904, “Sensitivity to cuticular hydrocarbons across the odorant receptor family in the Indian jumping ant, Harpegnathos saltator” (Frontiers in Insect Science, 2026).

How the values were obtained:
HsOr152 = target: T1, HsOr152 (Harpegnathos saltator, UniProt Z9SO02V7Q0); experiment: single-sensillum recording of Drosophila ab2A neurons expressing the receptor; format: cell-based; settings: 20 nmol dosed on heated cartridge; with DmOrco; excitatory; solvent (pentane) response subtracted
T1 construct: V subfamily OR; full-length, UAS-HsOr152 (pUASg.attB, attP40) in D. melanogaster ab2A neurons by Orco-GAL4; complex with endogenous DmOrco (D. melanogaster); with Odorant receptor coreceptor (Drosophila melanogaster)
T1 sequence (Z9SO02V7Q0 1-385): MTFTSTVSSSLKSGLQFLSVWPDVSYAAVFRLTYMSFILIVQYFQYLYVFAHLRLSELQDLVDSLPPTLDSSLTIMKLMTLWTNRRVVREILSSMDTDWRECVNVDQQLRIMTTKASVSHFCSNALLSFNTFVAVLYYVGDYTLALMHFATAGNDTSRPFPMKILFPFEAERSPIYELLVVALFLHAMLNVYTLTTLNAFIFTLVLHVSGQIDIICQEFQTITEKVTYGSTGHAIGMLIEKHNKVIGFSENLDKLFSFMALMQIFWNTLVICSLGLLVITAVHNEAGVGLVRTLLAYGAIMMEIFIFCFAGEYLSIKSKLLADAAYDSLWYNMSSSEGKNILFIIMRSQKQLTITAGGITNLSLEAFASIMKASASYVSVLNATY
T1 sequence (Q9VNB5 1-486 partner): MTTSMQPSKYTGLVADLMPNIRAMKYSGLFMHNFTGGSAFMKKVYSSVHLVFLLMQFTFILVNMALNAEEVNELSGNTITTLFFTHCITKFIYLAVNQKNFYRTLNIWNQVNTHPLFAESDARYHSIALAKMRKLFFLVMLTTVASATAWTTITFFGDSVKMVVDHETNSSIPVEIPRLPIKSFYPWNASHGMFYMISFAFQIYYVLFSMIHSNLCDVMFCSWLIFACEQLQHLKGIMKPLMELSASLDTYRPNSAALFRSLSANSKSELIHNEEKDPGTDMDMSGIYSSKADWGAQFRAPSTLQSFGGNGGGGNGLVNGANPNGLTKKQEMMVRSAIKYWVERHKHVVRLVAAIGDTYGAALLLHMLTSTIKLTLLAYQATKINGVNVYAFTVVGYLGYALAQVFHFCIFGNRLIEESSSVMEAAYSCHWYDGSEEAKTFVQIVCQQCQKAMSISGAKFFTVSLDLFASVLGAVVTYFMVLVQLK

HsOr115 = target: T2, HsOr115 (Harpegnathos saltator, UniProt Z9I713BLV2); experiment: as above; format: cell-based; settings: 20 nmol dosed on heated cartridge; with DmOrco; excitatory; solvent (pentane) response subtracted
T2 construct: full-length, UAS-HsOr (pUASg.attB, attP40) in D. melanogaster ab2A neurons by Orco-GAL4; complex with endogenous DmOrco (D. melanogaster); with Odorant receptor coreceptor (Drosophila melanogaster)
T2 sequence (Z9I713BLV2 1-398): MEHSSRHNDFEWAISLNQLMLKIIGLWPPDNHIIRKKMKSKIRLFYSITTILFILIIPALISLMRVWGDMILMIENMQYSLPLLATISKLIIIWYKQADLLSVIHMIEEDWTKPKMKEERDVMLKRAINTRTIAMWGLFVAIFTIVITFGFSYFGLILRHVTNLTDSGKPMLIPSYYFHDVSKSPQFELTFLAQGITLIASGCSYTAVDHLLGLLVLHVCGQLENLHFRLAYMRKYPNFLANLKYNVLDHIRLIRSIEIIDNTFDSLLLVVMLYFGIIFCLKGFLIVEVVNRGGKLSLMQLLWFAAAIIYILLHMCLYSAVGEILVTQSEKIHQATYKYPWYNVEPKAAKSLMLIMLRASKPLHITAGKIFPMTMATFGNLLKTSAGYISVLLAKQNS
T2 sequence (Q9VNB5 1-486 partner): T1 sequence (Q9VNB5 1-486 partner)

Compound | mean response (Δspikes/s) at 20 nmol (HsOr152) | response (Δspikes/s) at 20 nmol (HsOr115)
CCCCCCCCCCCCCCCCCCCCCCCCCCCC [C28, octacosane] | 87.5 Δspikes/s | –
CCCCCCCCCCCCCCCCCCCCCCCCCCCCCC [C30] | – | 33.0 Δspikes/s
